Experimental data from ChEMBL document CHEMBL1155253, “Synthesis, antitumor evaluation, molecular modeling and quantitative structure-activity relationship (QSAR) of some novel arylazopyrazolodiazine and triazine analogs” (Bioorg Med Chem, 2009).

Experiments:
Format in all cases: organism-based, Ehrlich
Design in all cases: route oral
[1] = test system: Mus musculus; test: Toxicity in Swiss albino mouse bearing mouse EAC cells assessed as increase in body weight at 50 to 250 mg/kg/day, po; details: in vivo
[2] = test system: Mus musculus; test: Toxicity in Swiss albino mouse bearing mouse EAC cells assessed as hemoglobin level at 50 to 250 mg/kg/day, po after 14 days postimplantation; details: in vivo, 336 h
[3] = test system: Mus musculus; test: Toxicity in Swiss albino mouse bearing mouse EAC cells assessed as hematocrit level at 50 to 250 mg/kg/day, po after 14 days postimplantation; details: in vivo, 336 h
[4] = test system: Mus musculus; test: Toxicity in Swiss albino mouse bearing mouse EAC cells assessed as WBC count at 50 to 250 mg/kg/day, po after 14 days postimplantation; details: in vivo, 336 h
[5] = test system: Mus musculus; test: Toxicity in Swiss albino mouse bearing mouse EAC cells assessed as mean survival time at 50 to 250 mg/kg/day, po; details: in vivo

| SMILES | Activity [1] | Activity [2] [g/dL] | Activity [3] [%] | Activity [4] | MST [5] [days] |
| --- | --- | --- | --- | --- | --- |
| Nc1nn2c(c1/N=N/c1ccc(/N=N/c3ccccc3)cc1)NC(=O)CC2 | Toxic | 10.9 | 43 | 12.8 | 17.1 |
| Nc1n[nH]c(/N=N/c2c(O)ccc3ccccc23)c1/N=N/c1ccc(/N=N/c2ccccc2)cc1 | Toxic | 10.5 | 43.7 | 11.5 | 17.8 |
| O=c1[nH]cc(F)c(=O)[nH]1 [FLUOROURACIL] | Toxic | 10 | 42.3 | 13.8 | 16.7 |
